assay: In vitro hydrolysis of functionalized phenolics in pH 7.4 buffer at reflux; format: physicochemical; conditions: 500 mg compound in 50 mL pH 7.4 buffer, reflux temperature (100° C.), monitored by TLC
Procedure: In Vitro Hydrolysis of Functionalized Phenolics
A few selected compounds were examined for the rate of hydrolysis by conducting in vitro hydrolysis studies at reflux temperature (100° C.). For each experiment, 500 mg of a functionalized compound and 50 mL of pH 7.4 buffer solution (purchased from Aldrich chemical company) were charged into a 100 mL round bottom flask fitted with a condenser and the contents were refluxed. In vitro hydrolysis of the functionalized phenolic was monitored by thin layer chromatography (TLC) using corresponding starting material (original amino acid) as a control. In vitro hydrolysis was continued at reflux until the functionalized molecule hydrolyzed to the starting compound.

| Structure (SMILES) | time in which the functionalized compound was hydrolyzed to the starting compound |
| --- | --- |
| COC(=O)COC(=O)COc1ccc(C(=O)OCC(=O)OC)cc1 [Example 77, 4-Methoxycarbonylmethoxycarbonylmethoxy-benzoic acid methoxycarbonyl methyl ester] | 26.5 h |
| COC(=O)COC(=O)c1ccc(OCC(=O)OC)cc1 [Example 78, 4-Methoxycarbonylmethoxy-benzoic acid methoxycarbonylmethyl ester] | 33.0 h |
| COC(=O)COC(=O)c1ccccc1OCC(=O)OC [Example 79, 2-Methoxycarbonylmethoxy-benzoic acid methoxycarbonylmethyl ester] | eight |
| COC(=O)COC(=O)COc1ccccc1C(=O)OCC(=O)OC [Example 81, 2-Methoxycarbonylmethoxycarbonylmethoxy-benzoic acid methoxycarbonyl methyl ester] | two |
| COC(=O)COC(=O)COc1ccc(OCC(=O)OCC(=O)OC)cc1 [Example 84, (4-Methoxycarbonylmethoxycarbonylmethoxy-phenoxy)-acetic acid methoxycarbonyl methyl ester] | one |
| COC(=O)C(C)OC(=O)COc1ccc(OCC(=O)OC(C)C(=O)OC)cc1 (stereo not shown) [Example 85, 2-{2-[4-(1-Methoxycarbonyl-ethoxycarbonylmethoxy)-phenoxy]-acetoxy}-propionic acid methyl ester] | two |
| COC(=O)COC(=O)COc1ccc2cc(C(C)C(=O)OCC(=O)OC)ccc2c1 (stereo not shown) [Example 90, 2-(6-Methoxycarbonylmethoxycarbonylmethoxy-naphthalen-2-yl)-propionic acid Methoxy Carbonylmethyl ester] | four |
| COC(=O)COC(=O)C(C)c1ccc2cc(OCC(=O)OC)ccc2c1 (stereo not shown) [Example 92, 2-(6-Methoxycarbonylmethoxy-naphthalen-2-yl)-propionic acid Methoxy Carbonyl methyl ester] | four |
| COC(=O)COC(=O)COc1ccc(N)cc1 [Example 96, (4-Amino-phenoxy)-acetic acid methoxycarbonylmethyl ester] | three |
| COC(=O)COC(=O)COc1ccc(-c2coc3cc(OCC(=O)OCC(=O)OC)ccc3c2=O)cc1 [Example 98, [4-(7-Methoxycarbonylmethoxycarbonylmethoxy-4-oxo-4H-chromen-3-yl)-phenoxy]-acetic acid methoxycarbonylmethyl ester] | ten |

Source: patent publication US8318973B2, “Functionalized sinapic acid and methyl sinapate” (Bezwada Biomedical, LLC, priority 2005, dated 2012)
